According to US20100160432A1, “Curative drug for neurodegenerative diseases” (priority 2007, published 2010):
Like-named read-outs stand apart in the source and are kept apart here.

Key:
PC12 cells = assay: Cytoprotection against linoleic acid hydroperoxide (LA-OOH) cell disorder, PC12 cells, methylene blue dye uptake; type: cell-based, rat; settings: for Protection Rate (%) / Survival Rate (%): LA-OOH 35 μM, about 20 h; for protection rate of PC12 cells (up to) / survival rate of PC12 cells (up to): highest value over the doses tested
Experimental: (§1) Of the hydroquinone derivatives expressed in the aforesaid Formula 1, 2,3,5-trimethyl-hydroquinone-1-hexylether (Compound 1) was examined in comparison with vitamin E with respect to the activity of inhibiting toxicity of lipid peroxide to nerve cells. PC12 cells as a cell culture model of for human neuroblastoma-derived SH-SY5Y and rat pheochromocytoma cells were cultivated by the law of the art. A culture media was prepared in effect by adding FCS (fetal calf serum) to Dulbecco's Eagle medium (DMEM) and used further with the addition of NaHCO3 (3.7 g/L), penicillin G (100 U/mL) and Streptomycin ([…]). A cultivation was performed by seeding 6×10^4 SH-SY5Y cells and 4×10^4 PC12 cells in a CO2 incubator at 37° C. using a microplate with 24 macroscopic pores. After 48 hours, the aforesaid Compound 1 or vitamin E was added thereto. Then after about 30 minutes, 70 μM of linoleic acid hydroperoxide were added thereto for the SH-SY5Y cells and 35 μM of the same were added for PC12 cells. After cultivation for about 20 hours, the number of surviving cells was measured.
(§2) The measurement of the surviving cells was made by a Methylene blue dye uptake method. To be more specific, the cells were rinsed twice with PBS (phosphate buffered saline free from Mg and Ca), and then, fixated with 10% formalin for 5 minutes. Further, the cells were rinsed three times with distilled water, stained with 0.05% methylene blue solution for 60 minutes, and rinsed three times with distilled water. Then, 20 minutes after adding 0.33N HCl thereto, the absorbance of the cells was measured at 665 nm. The survival rate and protection rate of the cells were calculated on the basis of the measured result by the following equation.
(§3) Cell survival rate (%)=[absorbance of treated cells with testing additives]/[absorbance of non-treated cells]×100
(§4) Protection rate (%)={1−(100−[survival rate of treated cells with testing additives])/(100−[survival rate of cells with no additives])}×100

SH-SY5Y cells = assay: Cytoprotection against linoleic acid hydroperoxide (LA-OOH) cell disorder, SH-SY5Y cells, methylene blue dye uptake; type: cell-based, human; settings: for Protection Rate (%) / Survival Rate (%): SH-SY5Y cells, LA-OOH 70 μM, about 20 h
Experimental: as §1, §2, §3, §4

NO production = settings: compared with vitamin E; cited from earlier work
[1] = compared with vitamin E, cited from earlier work

| Molecule | Protection Rate (%) (PC12 cells; dosage 0.1 μM) | Survival Rate (%) (PC12 cells; dosage 0.1 μM) | Protection Rate (%) (PC12 cells; dosage 0.5 μM) | Survival Rate (%) (PC12 cells; dosage 0.5 μM) | Protection Rate (%) (PC12 cells; dosage 1.0 μM) | Survival Rate (%) (PC12 cells; dosage 1.0 μM) | Protection Rate (%) (PC12 cells; dosage 5.0 μM) | Survival Rate (%) (PC12 cells; dosage 5.0 μM) | protection rate of PC12 cells (up to) (PC12 cells) | survival rate of PC12 cells (up to) (PC12 cells) | Protection Rate (%) (SH-SY5Y cells; dosage 0.5 μM) | Survival Rate (%) (SH-SY5Y cells; dosage 0.5 μM) | Protection Rate (%) (SH-SY5Y cells; dosage 1.0 μM) | Survival Rate (%) (SH-SY5Y cells; dosage 1.0 μM) | Protection Rate (%) (SH-SY5Y cells; dosage 5.0 μM) | Survival Rate (%) (SH-SY5Y cells; dosage 5.0 μM) | Protection Rate (%) (SH-SY5Y cells; dosage 10.0 μM) | Survival Rate (%) (SH-SY5Y cells; dosage 10.0 μM) | also measured |
| --- | --- | --- | --- | --- | --- | --- | --- | --- | --- | --- | --- | --- | --- | --- | --- | --- | --- | --- | --- |
| CCCCCCOc1cc(C)c(O)c(C)c1C [Compound 1, 2,3,5-trimethyl-hydroquinone-1-hexylether] | 21.5 | 45.68 | 80.6 | 86.57 | 88.4 | 91.96 | 88.9 | 92.31 | around 90% | around 90% | 14.8 | 83.41 | 22.1 | 84.83 | 38.3 | 87.97 | 33.5 | 87.04 | toxicity in comparison with vitamin E (SH-SY5Y cells; SH-SY5Y cells and PC12 cells, from Table 1 and Table 2): lower toxicity; NO-production inhibitory activity relative to vitamin E (NO production): 500 times as strong as vitamin E; antioxidative properties relative to vitamin E [1]: double that of vitamin E; antioxidative properties relative to vitamin E ([1]; listed as 2,3,5-trimethyl-hydroquinone-1-hexylether): twice as strong as vitamin E |
| Vitamin E [reference compound] | 6.8 | 37.16 | 4.9 | 35.88 | 4.8 | 35.85 | 14.8 | 42.57 | around 15% | about 42% | 14.5 | 83.72 | −6.3 | 79.77 | −6.2 | 79.78 | 4.3 | 81.78 | – |
